Source: PMC6212638, “In silico identification and biochemical characterization of the human dicarboxylate clamp TPR protein interaction network” (FEBS Open Bio, 2018)

How the values were obtained:
HEK293 cells = details: N-terminally fluorescein-labeled peptides, 20 μM, fluorescence imaging
Description: (§1) P < 0.05 was considered to be statistically significant. Data are presented as mean ± SEM.

Tom20–Tom70 interaction [1] = test: Proximity ligation assay (PLA) of Tom20–Tom70 interaction in HEK293 cells; type: cell-based, human; details: non-fluorescent peptide, n = 3
Description: as §1
(§2) In subsequent experiments, non‐fluorescent peptides were used. […] Cell impermeable Hsp90 peptide served as a treatment control.

Hsp90–Tom70 interaction [2] = test: Proximity ligation assay (PLA) of Hsp90–Tom70 interaction in HEK293 cells; type: cell-based, human; details: non-fluorescent peptide, n = 3
Description: as §1, §2

Tom20–Tom70 interaction [3] = test: Mammalian two-hybrid assay (luciferase) of Tom20–Tom70 interaction in HEK293 cells; type: cell-based, human; details: peptide 20 μM added 4 h after transfection, 48 h, n = 3
Description: (§3) Tom70 sequence was PCR amplified and subcloned into pACT vector of CheckMate™ mammalian two‐hybrid system (Promega, Madison, WI, USA) using SalI/NotI restriction sites, and Hsp90 and Tom20 DNA sequences were PCR amplified and subcloned into pBIND vector using SalI/NotI restriction sites. Tom70‐pACT/Hsp90‐pBIND and Tom70‐pACT/Tom20‐pBIND were co‐transfected with pLuc plasmid in a 1 : 1 : 1 molar ratio into HEK293 cells using Lipofectamine 3000 transfection reagent (Invitrogen, Carlsbad, CA, USA) according to the manufacturer's protocol. Triplicate samples in 96‐well cell culture plates Corning (Tewskbury, MA, USA) were used in each experiment. Hsp90, R9–Hsp90, Tom20 and R9–Tom20 peptides at concentration 20 μM were added 4 h after transfection. HEK293 cells were cultivated for 48 h, washed twice with PBS and lysed with PBS containing 1% Triton X‐100. Luciferase expression was detected using a luciferase assay kit from BioThema (Huddinge, Sweden) on a 96‐well plate reader from Perkin Elmer (Upplands Väsby, Stockholm, Sweden).
as §2

Hsp90–Tom70 interaction [4] = test: Mammalian two-hybrid assay (luciferase) of Hsp90–Tom70 interaction in HEK293 cells; type: cell-based, human; details: peptide 20 μM added 4 h after transfection, 48 h, n = 3
Description: as §3, §2

Tom70 [5] = test: Dot-blot assay of Tom70 with HRP-conjugated Hsp90 and Tom20 peptides in presence of unconjugated peptides; type: binding, human; details: 20 μM unconjugated peptide
Procedure: as §2
Figure 6 In vitro and in situ analysis of interactions of 10‐amino‐acid peptides corresponding to C termini of Hsp90 and Tom20 with Tom70. (A) Dot‐blot assay of interactions between Tom70 and HRP‐conjugated 10‐amino‐acid peptides corresponding to C termini of Hsp90 and Tom20 in the presence of 20 μM of unconjugated peptides. (B) Fluorescence imaging of HEK293 cells in the presence of 20 μM of fluorescein‐labeled Hsp90, R9–Hsp90, Tom20 and R9–Tom20 peptides. (C) Inhibition of Tom20–Tom70 and Hsp90–Tom70 interactions with R9–Hsp90 and R9–Tom20 in HEK293 cells measured by PLA. n = 3. Graphs were created and SD values were calculated using PRISM, version 7.02. *P‐value < 0.05 compared to control; comparisons are based on one‐way ANOVA. (D) Inhibition of Tom20–Tom70 and Hsp90–Tom70 interactions with R9–Hsp90 and R9–Tom20 in HEK293 cells measured by mammalian two‐hybrid assay. n = 3. Graphs were created and SD values were calculated using PRISM, version 7.02. *P‐value < 0.05 compared to control; comparisons are based on one‐way ANOVA.

Tom70 [6] = details: cited from earlier work
Description: First, we tested the ability of unlabeled Hsp90 and Tom20 peptides to compete with their HRP‐labeled analogues for binding to Tom70, the known partner for both Hsp90 and Tom20 proteins.

FKBP51 = biological target: T1, FKBP51 (Homo sapiens, UniProt Q13451); test: Dot-blot competition assay: HRP-conjugated peptide vs unlabeled peptide on immobilized FKBP51
T1 sequence (Q13451 1-457): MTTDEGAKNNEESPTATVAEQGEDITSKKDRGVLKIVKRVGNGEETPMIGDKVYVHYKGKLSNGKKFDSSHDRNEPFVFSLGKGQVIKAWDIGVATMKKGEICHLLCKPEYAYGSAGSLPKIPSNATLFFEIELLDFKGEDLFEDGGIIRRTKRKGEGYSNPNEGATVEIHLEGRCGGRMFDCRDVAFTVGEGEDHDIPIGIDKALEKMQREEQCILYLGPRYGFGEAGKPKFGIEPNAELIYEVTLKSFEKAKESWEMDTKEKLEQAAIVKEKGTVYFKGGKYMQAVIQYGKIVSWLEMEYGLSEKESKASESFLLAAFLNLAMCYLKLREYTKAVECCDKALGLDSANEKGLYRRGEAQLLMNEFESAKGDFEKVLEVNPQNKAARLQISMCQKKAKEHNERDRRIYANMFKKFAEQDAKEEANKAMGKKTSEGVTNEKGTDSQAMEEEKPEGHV
Procedure: (§4) Full‐length cDNA clones for respective proteins were obtained from IMAGE consortium (SourceBioScience, Nottingham, UK) and PCR amplified with forward and reverse primers (Table 1) containing overhangs with appropriate restriction sites and cloned into pGEX6 vectors (GE Healthcare, Uppsala, Sweden). Inserts were sequence verified, and the plasmids were transformed into BL21 Escherichia coli strain. Glutathione‐S‐transferase (GST) fusion proteins were purified from 1 L overnight culture after 2 h of induction with 1 mM IPTG. Cells were pelleted, resuspended in 1× PBS and sonicated 3 × 20 s on ice. EDTA and protease inhibitor cocktail were added to prevent proteolysis. The suspension was centrifuged for 30 min at 50 000 g to remove cell debris, and supernatant was loaded onto a 1 mL GSTrap™ 4B column (GE Healthcare). After column washing with 30 mL PBS, GST fusion proteins were eluted with 2.5 mL 10 mM glutathione in PBS. Eluate was passed through a PD‐10 column (GE Healthcare) to remove free glutathione. To prepare GST‐tag‐free proteins, we performed overnight cleavage at 4 °C with PreScission protease (GE Healthcare) followed by passage through a GSTrap column to remove free GST protein. Average yield from 1 L starting culture was 1–5 mg of purified proteins. Protein‐containing fractions were collected, checked with SDS/PAGE and kept at −20 °C.
(§5) Peptides were dissolved in HEPES‐KOH buffer pH 7.2 at concentration of 1 mg·mL^−1 and incubated with equimolar amounts of activated horseradish peroxidase (HRP) (Lightning‐link® HRP labeling kit cat. 701‐004, from Innova Biosciences) for 5 min. Reaction was quenched with 0.1 M Tris/HCl, pH 7.5 for 10 min and the products were passed through PD‐10 columns (GE Healthcare). Dot‐blot experiments were performed using GST‐tag‐free proteins applied to the nitrocellulose membrane. After blocking of membrane with 3% BSA in TBS‐T buffer for 1 h and subsequent wash with TBS‐T, HRP‐conjugated peptides (1 × 500 times dilution) were applied and incubated for 1 h. After subsequent washing (3 × 10 min, TBS‐T), membrane was dried and signals were quantified using a digital Fujifilm LAS3000 imager and LAS3000 software. In competition experiments, increasing concentrations of unlabeled peptides were co‐incubated with peptide–HRP conjugates.
(§6) Each peptide was separately coupled to HRP.

AIP = biological target: T2, AIP (Homo sapiens, UniProt O00170); test: Dot-blot competition assay: HRP-conjugated peptide vs unlabeled peptide on nitrocellulose-immobilized AIP
T2 sequence (O00170 1-330): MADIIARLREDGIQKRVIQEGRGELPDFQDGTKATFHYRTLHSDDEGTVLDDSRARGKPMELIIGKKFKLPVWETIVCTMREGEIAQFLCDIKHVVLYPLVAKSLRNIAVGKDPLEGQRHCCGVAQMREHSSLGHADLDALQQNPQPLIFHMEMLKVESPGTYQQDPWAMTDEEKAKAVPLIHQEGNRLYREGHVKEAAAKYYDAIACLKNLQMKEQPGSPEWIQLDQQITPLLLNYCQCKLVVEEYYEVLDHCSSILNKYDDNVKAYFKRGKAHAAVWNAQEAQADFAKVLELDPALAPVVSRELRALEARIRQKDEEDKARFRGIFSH
Procedure: as §4, §5, §6

| Compound | fluorescein staining of HEK293 cells (peptide translocation into the cells) (HEK293 cells) | decrease of Tom20–Tom70 interaction signal (PLA) (Tom20–Tom70 interaction [1]) | decrease of Hsp90–Tom70 interaction signal (PLA) (Hsp90–Tom70 interaction [2]) | inhibition of Tom20–Tom70 interaction (mammalian two-hybrid, luciferase) (Tom20–Tom70 interaction [3]) | inhibition of Hsp90–Tom70 interaction (mammalian two-hybrid, luciferase) (Hsp90–Tom70 interaction [4]) | competition with HRP-conjugated Hsp90 peptide for Tom70 binding (Tom70 [5]) | competition with HRP-conjugated Tom20 peptide for Tom70 binding (Tom70 [5]) | affinity for Tom70 relative to 10-mer Tom20 peptide (Tom70 [6]) | IC50 (FKBP51) [µM] | IC50 (AIP) [µM] |
| --- | --- | --- | --- | --- | --- | --- | --- | --- | --- | --- |
| H-RRRRRRRRREDASRMEEVD-OH [R9–Hsp90, cell‐permeant analog of the Hsp90 peptide containing a nine‐arginine N‐terminal tag] | resulted in HEK293 cells staining | approximately 50% | approximately 50% | sensitive | inhibited |  |  |  |  |  |
| CSCC[C@H](NC(=O)[C@H](CCCNC(=N)N)NC(=O)[C@H](CO)NC(=O)[C@H](C)NC(=O)[C@H](CC(=O)O)NC(=O)[C@@H](N)CCC(=O)O)C(=O)N[C@@H](CCC(=O)O)C(=O)N[C@@H](CCC(=O)O)C(=O)N[C@H](C(=O)N[C@@H](CC(=O)O)C(=O)O)C(C)C [Hsp90β] |  |  |  |  |  | effectively competes | effectively competes | more than 10 fold | 18.9 ± 3 | 17.8 ± 1.35 |
